Measured values taken from patent publication US20160209435A1, “Acetaminophen as a Marker of Hepatic Disorders” (THE ARIZONA BOARD OF REGENTS, on behalf of THE UNIVERSITY …, priority 2008, published 2016).
Where two headings read alike, the source gives them in different places.

Experiments:
[1] = cited from earlier work
[2] = APAP-GLUC concentration in urine after APAP administration (HPLC); format: in vivo, human; settings: normal volunteers, steatosis, steatohepatitis
Experimental: (§1) A study was conducted in pediatric patients whose disease status had been biopsy verified. Twenty-four pediatric patients (12-18 yrs) were desirable for the preliminary study due to the presumed lack of confounding factors (e.g., alcoholic consumption, illicit drug use) and the increasing prevalence of childhood obesity. Conversely, pediatric patients are limited in the amount of real liver damage that can take place simply due to age, where pediatric patients are incapable of developing ballooning degeneration and are limited to fat deposition, inflammation, and fibrosis.
High Performance Liquid Chromatography Analysis. APAP and its metabolites in plasma, and urine samples were quantified by high performance liquid chromatography analysis based on previously described methods (Howie et al., 1977a; Chen et al., 2000; Slitt et al., 2003d). […] The elution of metabolites was monitored at a wavelength of 254 nm. Retention times of APAP and its metabolites were determined by comparison with that of authentic standards. […] Samples were analyzed using a Beckman System Gold HPLC system (Beckman Coulter, Inc., Fullerton, Calif.) equipped with a 128-nm solvent module and a 166-nm detector. Quantitation was based on integrated peak areas. […]

[3] = APAP-GLUC concentration in plasma of pediatric patients after APAP administration (HPLC); format: in vivo, human; settings: for concentration at 1 h / concentration at 2 h / concentration at 4 h / concentration at 3 h: human, plasma; for concentration at 1 h: 1 h after APAP; for concentration at 2 h: 2 h after APAP; for concentration at 4 h: 4 h after APAP; for concentration at 3 h: 3 h after APAP
Experimental: as §1
High Performance Liquid Chromatography Analysis. APAP and its metabolites in plasma, and urine samples were quantified by high performance liquid chromatography analysis based on previously described methods (Howie et al., 1977a; Chen et al., 2000; Slitt et al., 2003d). APAP and its metabolites were resolved using a Zorbmax™ SB-C18 reverse-phase 4.6-mm×25-cm column with a Phenomenex™ Security Guard Column Guard and eluted using a mobile phase composed of 12.5% HPLC-grade methanol, 1% acetic acid, and 86.5% water, run isocratically at a flow rate of 1.2 mL/minute. The elution of metabolites was monitored at a wavelength of 254 nm. Retention times of APAP and its metabolites were determined by comparison with that of authentic standards. […] Samples were analyzed using a Beckman System Gold HPLC system (Beckman Coulter, Inc., Fullerton, Calif.) equipped with a 128-nm solvent module and a 166-nm detector. Quantitation was based on integrated peak areas. The concentrations of APAP and its metabolites were calculated using an APAP standard curve since the molar extinction coefficients of APAP and its conjugated metabolites are approximately the same (Howie et al., 1977b). To precipitate proteins in plasma, and urine, samples were diluted 1:2, 1:2, and 1:3, respectively, with ice-cold methanol and centrifuged at 4,000×g for 30 minutes at 4° C. The resulting supernatants were collected and diluted in mobile phase 1:3 (urine) or 1:2 (plasma) prior to HPLC analysis.
Liver fibrosis was histologically characterized as mild (minimal scarring around blood vessels), moderate (scarring extending out from the liver blood vessels), or severe (scarring forming bridges between blood vessels).
Liver inflammation was histologically characterized as mild (less than 2 foci of inflammation), moderate (2-4 foci of inflammation), or severe (more than 4 foci of inflammation).

[4] = MCD rats, APAP 1 mmol/kg; cited from earlier work
[5] = NASH, read-out: Mean plasma concentration
[6] = NASH, read-out: Median plasma concentration
[7] = Normal, read-out: Mean plasma concentration
[8] = Normal, read-out: Median plasma concentration
[9] = Steatosis, read-out: Mean plasma concentration
[10] = Steatosis, read-out: Median plasma concentration

Question: For CC(=O)Nc1ccc(O)cc1 [Acetaminophen], which plasma half-life ([1]; first-order elimination) is on record?
Answer: 2.0 to 2.4 h

Question: And the “fraction of administered dose conjugated with glucuronic acid” value ([1]; in vivo)?
Answer: At least one-half

Question: What about the “fraction of administered dose conjugated with sulfate” value ([1]; in vivo) of the same compound?
Answer: one-third

Question: What about the “fraction metabolized by CYP-450-dependent mixed-function oxidase pathway” value ([1]; primarily via CYP2E1) of the same compound?
Answer: 5-9%

Question: What about the “dose excreted unchanged by the kidneys” value ([1]; recommended dose) of the same compound?
Answer: Less than 5%

Question: With CC(=O)Nc1ccc(O[C@@H]2O[C@H](C(=O)O)[C@@H](O)[C@H](O)[C@H]2O)cc1 [APAP-GLUC, acetaminophen (APAP)-glucuronide] as the compound, how does the “Urine levels, NASH versus other groups” value [2] read?
Answer: not significantly different between patients with NASH and other groups until four hours

Question: What about the “Plasma concentration, steatohepatitis versus simple steatosis” value ([3]; all time points measured) of the same compound?
Answer: significantly higher

Question: What about the concentration at 1 h [3, 5] of the same compound?
Answer: 60.7 µM

Question: And the concentration at 1 h [3, 6]?
Answer: 75.9 µM

Question: What about the concentration at 2 h [3, 5] of the same compound?
Answer: 72.7 µM

Question: What about the concentration at 2 h [3, 6] of the same compound?
Answer: 66.4 µM

Question: What about the concentration at 4 h [3, 5] of the same compound?
Answer: 68.3 µM

Question: And the concentration at 4 h [3, 6]?
Answer: 62.6 µM

Question: And the concentration at 1 h [3, 7]?
Answer: 29.9 µM

Question: And the concentration at 1 h [3, 8]?
Answer: 29 µM

Question: What about the concentration at 2 h [3, 7] of the same compound?
Answer: 54.3 µM

Question: What about the concentration at 2 h [3, 8] of the same compound?
Answer: 48.9 µM

Question: And the concentration at 3 h [3, 7]?
Answer: 46.7 µM

Question: What about the concentration at 3 h [3, 8] of the same compound?
Answer: 39.2 µM

Question: And the concentration at 1 h [3, 9]?
Answer: 30.5 µM

Question: What about the concentration at 1 h [3, 10] of the same compound?
Answer: 32.6 µM

Question: And the concentration at 2 h [3, 9]?
Answer: 44.3 µM

Question: What about the concentration at 2 h [3, 10] of the same compound?
Answer: 41.1 µM

Question: What about the concentration at 4 h [3, 9] of the same compound?
Answer: 35.5 µM

Question: What about the concentration at 4 h [3, 10] of the same compound?
Answer: 35.3 µM

Question: What about the “Plasma levels, hepatic fibrosis versus no hepatic fibrosis” value ([3]; pediatric patients) of the same compound?
Answer: Higher

Question: What about the “Plasma levels, hepatic inflammation versus no hepatic inflammation” value ([3]; pediatric patients) of the same compound?
Answer: Higher

Question: What about the “route of excretion relative to control” value [4] of the same compound?
Answer: shift from biliary to plasma excretion
